Laboratory results from patent US10017481B2, “Conformationally constrained, fully synthetic macrocyclic compounds” (POLYPHOR AG, priority 2012, dated 2018).
Converted amounts (≈) assume the structure as drawn. Read-outs that look alike come from different tables or passages of the source.

Legend:
[1] = molecular target: T1, Oxytocin receptor (OT receptor) (Homo sapiens, UniProt P30559); assay: Ca2+ flux (FLIPR) assay, OT receptor, agonist/antagonist mode; assay type: cell-based; conditions: antagonist mode
T1 construct: expressed in transfected cells; host or cells: Ca2+ optimized hematopoietic cell lines (rat)
T1 sequence (P30559 1-389): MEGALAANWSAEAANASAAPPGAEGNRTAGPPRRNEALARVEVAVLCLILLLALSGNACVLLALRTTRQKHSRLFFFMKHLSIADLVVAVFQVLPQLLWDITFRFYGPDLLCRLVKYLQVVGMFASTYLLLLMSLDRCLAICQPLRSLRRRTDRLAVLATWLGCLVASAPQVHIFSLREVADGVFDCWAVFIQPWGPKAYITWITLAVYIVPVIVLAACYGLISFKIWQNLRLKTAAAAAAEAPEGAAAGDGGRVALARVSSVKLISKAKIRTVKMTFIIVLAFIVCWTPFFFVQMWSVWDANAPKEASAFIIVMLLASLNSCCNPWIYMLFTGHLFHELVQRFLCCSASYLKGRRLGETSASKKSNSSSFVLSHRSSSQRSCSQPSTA
Experimental: Biological and Pharmacological Methods 1. Ca^2+ Flux Assays for the GPCRs Oxytocin Receptor (OT Receptor), Thyrotropin-Releasing Hormone Receptor (TRH Receptor) and Bombesin Receptor Subtype 3 (BB3 Receptor)
Assays were performed on a FLIPR^TETRA fluorometric imaging plate reader (Molecular Devices) with ScreenWorks Version 2 (Molecular Devices) as device operating and data analysis software.
Dose dependent agonist and antagonist activities were determined. Percentage activation and percentage inhibition values were determined.
Percentage activation was determined upon initial addition of the sample compounds followed by 10 minutes' incubation at 25° C. Following compound incubation, reference agonists were added at EC80 to determine percentage inhibition.
Reference agonists were purchased from reputable commercial vendors and prepared according to each ligand's specifications. All handling of ligands were done to ensure proper control throughout the experiments.
Example compounds were weighed on a Microbalance (Mettler MX5) and dissolved in 100% DMSO to a final concentration of 2.5 mM and subsequently diluted into the assay buffer.
The assay buffer was a supplemented HBSS (Hank's Balanced Salt Solution). HBSS was supplemented with 20 mM HEPES (4-(2-hydroxyethyl)-piperazin-1-ethansulfonic acid) and 2.5 mM Probenecid (Sigma P8761).
GPCR assays were performed using Ca^2+ optimized hematopoietic cell lines (rat) with cultures never exceeding 90% confluency. Cells were harvested and seeded (from cultures at less than 90% confluency) at 50000 cells/well for a 96-well plate (12500 cells/well for 384). After seeding, the assay plates were incubated for 45 minutes at room temperature. After room temperature incubation, the assay plates were incubated at 37° C. 5% CO2 for 24 hours prior to assaying.
All GPCR assays were performed using Fluo-8 Ca^2+ dye.
Ca^2+ dye was prepared at 1× dye concentration in GPCR assay buffer. After 24 hours of incubation, cells were washed with GPCR assay buffer, and then Ca^2+-dye (100 μL/well) was added.
The plates were incubated for 90 minutes at 30° C. 5% CO2 prior to FLIPR assay.
Compound plates were prepared to add 50 μL/well during the agonist assay mode. During the FLIPR assay, 50 μL/well from the compound plate was diluted 3-fold into the existing 100 μL/well from the dye loading step. Therefore all compounds were prepared as 3× the final concentration desired in the assay.
After completion of the first single addition assay run, assay plate was removed from the FLIPR Tetra and placed at 25° C. for 7 minutes before antagonist assay.
Using the EC80 values determined during the agonist assay, all pre-incubated sample compound and reference antagonist (if applicable) wells were stimulated at the EC80 of the reference agonist. As reference ligands for these assays their obvious natural ligands oxytocin (OT), thyrotropin-releasing hormone (TRH) and bombesin (6-14) [BN(6-14)] were used.
After the addition of the reference agonist fluorescence was monitored for 180 sec using FLIPR Tetra.
From the FLIPR data, with negative control correction enabled, the maximum statistic for each well was exported and percentage activation relative to Emax control was calculated.

[2] = molecular target: T2, human leukotriene B4 receptor (LTB4R) (Homo sapiens, UniProt Q15722); assay: Human LTB4 receptor cell-based assay (CHO mito-i-Photina, flash luminescence); conditions: antagonist mode
T2 construct: host or cells: CHO mito-i-Photina cells
Source text: 3. Human LTB4 Receptor Cell-Based Assay
CHO mito-i-Photina® cells (Axxam SpA) stably expressing the human leukotriene B4 receptor (LTB4R) were used for monitoring activation of the target LTB4R, a GPCR (Gαq), by measuring the flash luminescence of Ca^2+ sensitive photoprotein as reporter system with FLIPR^TETRA screening instrumentation (Molecular Devices) upgraded with an ICCD Camera (MDC). For data quality check and data analysis a Genedata Screener 10.0.3 was used, and for curve fitting of reference agonist and antagonist GraphPad Prism Software.
The reference agonist LTB4 and antagonist U-75302 were purchased from reputable commercial vendors and prepared according to each ligand's specifications. All handling of ligands were done to ensure proper control throughout the experiments.
The steps of the implemented workflow and data analysis are mainly as follows:
mito-1-Photina cells are seeded (10000 c/w in 384 MTP; in complete medium 25 μL/well) for 24 hours, removed from the incubator, equilibrated at room temperature for 1 h, freed from the growth medium, loaded with 30 μL/well of Tyrode's buffer containing 10 μM coelenterazine, and incubated for 3 hours at rt.
All compounds were tested at 10 μM with triplicate data points.
After incubation, the volume in all the wells is flattened to 20 μL by aspiration with CyBi®-Vario pipettor. The First Injection (10 μL of test compounds or reference antagonist U-75302 in Tyrode's buffer+DMSO 0.5%) is performed by the FLIPR^TETRA and the kinetic response is monitored over a period of 120 seconds. Incubation at rt for 10 min. is followed by the Second Injection (15 μL of LTB4 at EC80 in Tyrode's buffer) and monitoring of the kinetic response over a period of 120 seconds.
The possible kinetic response is divided into two distinct phases: Monitoring the kinetic response after the First Injection is indicated as Compound Addition (CA) and measures the agonistic activity of compounds; monitoring the kinetic response after the Second Injection is indicated as Target Activation (TA) and measures the antagonistic activity of a compound.
The activity determination (IC50 determination) experiment is performed using LTB4 as agonist (100 nM corresponding to EC80). Selected compound are tested in 8 doses intraplate dose response with quadruplicate data points.

[3] = system: S. aureus ATCC 29213, ATCC 25923, DSM 11729, DSM 46320, S. aureus 39; assay: Antimicrobial assay, broth microdilution MIC, S. aureus strains; assay type: cell-based; conditions: Staphylococcus aureus
Experimental: (§1) The antimicrobial activities of the compounds were determined in 96-well plates (Greiner, polystyrene) by the standard NCCLS broth microdilution method (National Committee for Clinical Laboratory Standards 1993. Methods for dilution antimicrobial susceptibility tests for bacteria that grow aerobically, 3rd ed. Approved standard M7-A6. National Committee for Clinical laboratory standards, Wayne, Pa.) with slight modifications. Inocula of the microorganisms were diluted into Mueller-Hinton II (MH, cation adjusted) broth+0.002% P-80 and compared with a 0.5 McFarland standard to give appr. 10^6 colony forming units (CFU)/mL. Aliquots (50 μl) of inoculate were added to 50 μl of MH broth+0.002% P-80 containing the compounds in serial two-fold dilutions. The following microorganisms were used to determine antibiotic selectivity of the compounds: S. pneumoniae DSM 20566 11A11, 3313A6, 704CG4B21, 82BERG72; S. aureus ATCC 29213, ATCC 25923, DSM 11729, DSM 46320, S. aureus 39. Antimicrobial activities of the compounds were expressed as the minimal inhibitory concentration (MIC) in μg/mL at which no visible growth was observed after 18-20 hours of incubation at 36° C.

[4] = system: S. pneumoniae DSM 20566 11A11, 3313A6, 704CG4B21, 82BERG72; assay: Antimicrobial assay, broth microdilution MIC, S. pneumoniae strains; assay type: cell-based; conditions: Streptococcus pneumoniae, DSM20566; strain DSM 20566 (Table 32.7); read-out: MIC S. pneumoniae DSM 20566
Experimental: as §1

T2 sequence (Q15722 whole entry): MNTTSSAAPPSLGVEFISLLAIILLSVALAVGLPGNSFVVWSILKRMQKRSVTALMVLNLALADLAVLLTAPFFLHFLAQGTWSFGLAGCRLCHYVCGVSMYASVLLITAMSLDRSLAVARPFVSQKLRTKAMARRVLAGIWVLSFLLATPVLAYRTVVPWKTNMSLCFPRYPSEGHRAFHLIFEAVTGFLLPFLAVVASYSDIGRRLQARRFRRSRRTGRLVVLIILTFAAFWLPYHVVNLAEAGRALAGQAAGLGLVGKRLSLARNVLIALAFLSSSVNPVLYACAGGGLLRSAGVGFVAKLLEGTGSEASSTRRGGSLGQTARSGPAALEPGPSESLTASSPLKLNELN

| SMILES | IC50 [1] [µM] | inhibition at 10 µM ([1]; 10 μM) [%] | IC50 [2] [µM] | inhibition at 10 µM [2] [%] | further results |
| --- | --- | --- | --- | --- | --- |
| CC(=O)N[C@@H]1C[C@H]2COc3cccc(c3)-c3cncc(c3)C(=O)NCCN(Cc3cccc(F)c3)CC(=O)N2C1 [Ex. 100, N-[(9S,11R)-16-(3-fluorobenzyl)-14,20-dioxo-7-oxa-13,16,19,23-tetraazatetracyclo[19.3.1.1^2,6.0^9,13]hexacosa-1(25),2(26),3,5,21,23-hexaen-11-yl]acetamide] | 4.6 | 57 |  |  |  |
| O=C(N[C@@H]1CCNC(=O)c2ccccc2-c2cccc(c2)OC[C@@H]2C[C@H](NC(=O)Oc3ccccc3)CN2C1=O)OCc1ccccc1 [Ex. 14] |  |  | 39.4 | 46 |  |
| CN1CCNC(=O)c2cncc(c2)-c2cccc(c2)OC[C@@H]2C[C@@H](NC(=O)Cc3cccc4ccccc34)CN2C(=O)C1 [Ex. 101, N-[(9S,11R)-16-methyl-14,20-dioxo-7-oxa-13,16,19,23-tetraazatetracyclo[19.3.1.1^2,6.0^9,13]hexacosa-1(25),2(26),3,5,21,23-hexaen-11-yl]-2-(1-naphthyl) acetamide] | 2.6 |  |  |  | Antagonist activity % Inhibition at 10 μM ([1]; 10 μM): 69% |
| CN1CCNC(=O)c2cncc(c2)-c2cccc(c2)OC[C@@H]2C[C@@H](NC(=O)Cc3ccc4ccccc4c3)CN2C(=O)C1 [Ex. 96, N-[(9S,11R)-16-methyl-14,20-dioxo-7-oxa-13,16,19,23-tetraazatetracyclo[19.3.1.1^2,6.0^9,13]hexacosa-1(25),2(26),3,5,21,23-hexaen-11-yl]-2-(2-naphthyl) acetamide] | 1.2 | 60 |  |  |  |
| CN1CCNC(=O)c2cncc(c2)-c2cccc(c2)OC[C@@H]2C[C@@H](NS(=O)(=O)c3ccccc3)CN2C(=O)C1 [Ex. 103, N-[(9S,11R)-16-methyl-14,20-dioxo-7-oxa-13,16,19,23-tetraazatetracyclo[19.3.1.1^2,6.0^9,13]hexacosa-1(25),2(26),3,5,21,23-hexaen-11-yl]benzenesulfonamide] | 6.9 | 77 |  |  |  |
| CN1CCNC(=O)c2cncc(c2)-c2cccc(c2)OC[C@@H]2C[C@@H](NC(=O)OC(C)(C)C)CN2C(=O)C1 [Ex. 94, tert-butyl N-[(9S,11R)-16-methyl-14,20-dioxo-7-oxa-13,16,19,23-tetraazatetracyclo[19.3.1.1^2,6.0^9,13]hexacosa-1(25),2(26),3,5,21,23-hexaen-11-yl]carbamate] | 3 | 58 |  |  | MIC ([3]; strain ATCC 25923, read-out: MIC S. aureus ATCC 25923): 8 µg/mL (≈ 15.7 µM); MIC ([3]; strain ATCC 29213, read-out: MIC S. aureus ATCC 29213): 4 µg/mL (≈ 7.85 µM); MIC ([3]; strain DSM 11729, read-out: MIC S. aureus DSM 11729): 4 µg/mL (≈ 7.85 µM); MIC ([3]; strain DSM 46320, read-out: MIC S. aureus DSM 46320): 8 µg/mL (≈ 15.7 µM); MIC ([3]; strain S. aureus 39, read-out: MIC S. aureus 39): 8 µg/mL (≈ 15.7 µM); MIC [4]: > 16 µg/mL |

Now from value to compound, other results behind:

| IC50 [1] [µM] | inhibition at 10 µM ([1]; 10 μM) [%] | IC50 [2] [µM] | inhibition at 10 µM [2] [%] | SMILES | further results |
| --- | --- | --- | --- | --- | --- |
|  |  | 15.4 | 49 | C[C@@H]1COc2cccc(c2)-c2ccccc2SCCCC[C@H](N)C(=O)N1 [Ex. 116, (13S,16R)-13-amino-16-methyl-18-oxa-8-thia-15-azatricyclo[17.3.1.0^2,7]tricosa-1(23),2,4,6,19,21-hexaen-14-one] |  |
|  |  | 14.2 | 47 | C[C@@H]1COc2cccc(c2)-c2ccccc2SCCCC[C@H](NC(=O)CN2CCCC2)C(=O)N1 [Ex. 119, N-[(13S,16R)-16-methyl-14-oxo-18-oxa-8-thia-15-azatricyclo[17.3.1.0^2,7]tricosa-1(23),2,4,6,19,21-hexaen-13-yl]-2-(1-pyrrolidinyl)acetamide] |  |
|  |  | 40.9 | 41 | C[C@@H]1COc2ccccc2-c2cncc(c2)SCCCC[C@H](N)C(=O)N1 [Ex. 144, (10R,13S)-13-amino-10-methyl-8-oxa-18-thia-11,21-diazatricyclo[17.3.1.0^2,7]tricosa-1(23),2,4,6,19,21-hexaen-12-one] |  |
